{"source": "patent US5159061A", "about": "“Atrial natriuretic peptide derivative” (Takeda Chemical Industries, Ltd., priority 1986, dated 1992)", "key": {"[1]": {"tested_on": "spontaneously hypertensive rats (SHR)", "assay": "Hypotensive action in spontaneously hypertensive rats (SHR)", "type": "in vivo, rat", "settings": "male SHR, 20 weeks old; intravenous 100 μg/250 μl/kg in physiological saline; maximum decrease in blood pressure, difference from preadministration value", "protocol": "Hypotensive action in spontaneously hypertensive rats (SHR)\nThree male SHRs at the age of 20 weeks in each group were anesthetized with pentobarbital (50 mg/kg, intraperitoneal administration); SP-10 and SP-45 polyethylene tubes (manufactured by Natsume Seisakusho, Japan) were inserted respectively into the groin artery and vein, and through each of these a cannula was passed to the neck site via the back subcutaneous tissue, and one end of the cannula was fixed there. The rats were used in experiments the following day. As a α-hANP derivatives, [Aib^6 ]-α-hANP[6-28] obtained in Example 1 and [Aib^6,Ile^12 ]-α-hANP[6-28] obtained in Example 8, and as a control, α-hANP[7-28], in solution in physiological saline, were each intravenously administered in the ratio of 100 μg/250 μl/kg of body weight. Hypotensive activities are shown as a degree of the maximum decrease in blood pressure (difference from the preadministration value) that occurred after the administration of the subject compound."}, "[2]": {"settings": "the molecule shown is the open-chain precursor, disulfide bond, 2 steps"}, "[3]": {"settings": "53-membered ring, air/NH4OAc/NH3 pH 6.9, water, 0.052 mM, 25.0 °C"}, "[4]": {"settings": "53-membered ring, air (after HF deprotection)"}}, "note": "Like-named read-outs stand apart in the source and are kept apart here. Where a SMILES comes first, the peptide text is derived from it. Bridges are numbered along the chain shown (N, C = ends). [ ]: non-standard residue; d: D form. Aib = CC(C)(N)C(=O)O", "data": [{"compound": "CC[C@H](C)[C@@H]1NC(=O)[C@H](CCCNC(=N)N)NC(=O)[C@H](CC(=O)O)NC(=O)[C@H]([C@@H](C)CC)NC(=O)[C@H](CCCNC(=N)N)NC(=O)CNC(=O)CNC(=O)[C@H](Cc2ccccc2)NC(=O)[C@@H](NC(=O)C(C)(C)N)CSSC[C@@H](C(=O)N[C@@H](CC(N)=O)C(=O)N[C@@H](CO)C(=O)N[C@@H](Cc2ccccc2)C(=O)N[C@@H](CCCNC(=N)N)C(=O)N[C@@H](Cc2ccc(O)cc2)C(=O)O)NC(=O)CNC(=O)[C@H](CC(C)C)NC(=O)CNC(=O)[C@H](CO)NC(=O)[C@H](CCC(N)=O)NC(=O)[C@H](C)NC(=O)CNC1=O", "note": "[[Aib^6, Ile^12]-α-hANP[6-28]] (H-[Aib]CFGGRIDRIGAQSGLGCNSFRY-OH; disulfide 2-18)", "values": [{"measurement": "Degree of Decrease in Blood Pressure", "setting": "[1]", "result": "-90 ΔmmHg"}]}, {"compound": "CC[C@H](C)[C@@H]1NC(=O)[C@H](CCCNC(=N)N)NC(=O)[C@H](CC(=O)O)NC(=O)[C@H](CCSC)NC(=O)[C@H](CCCNC(=N)N)NC(=O)CNC(=O)CNC(=O)[C@H](Cc2ccccc2)NC(=O)[C@@H](NC(=O)C(C)(C)N)CSSC[C@@H](C(=O)N[C@@H](CC(N)=O)C(=O)N[C@@H](CO)C(=O)N[C@@H](Cc2ccccc2)C(=O)N[C@@H](CCCNC(=N)N)C(=O)N[C@@H](Cc2ccc(O)cc2)C(=O)O)NC(=O)CNC(=O)[C@H](CC(C)C)NC(=O)CNC(=O)[C@H](CO)NC(=O)[C@H](CCC(N)=O)NC(=O)[C@H](C)NC(=O)CNC1=O", "note": "[[Aib^6]-α-hANP[6-28]] (H-[Aib]CFGGRMDRIGAQSGLGCNSFRY-OH; disulfide 2-18)", "values": [{"measurement": "Degree of Decrease in Blood Pressure", "setting": "[1]", "result": "-70 ΔmmHg"}]}, {"compound": "H-Achc-Cys-Phe-Gly-Gly-Arg-Met-Asp-Arg-Ile-Gly-Ala-Gln-Ser-Gly-Leu-Gly-Cys-Asn-Ser-Phe-Arg-Tyr-OH", "values": [{"measurement": "ring closure, isolated yield", "setting": "[2]; [3]", "result": 22, "unit": "%"}]}, {"compound": "H-Aib-Cys-Phe-Gly-Gly-Arg-Leu-Asp-Arg-Ile-Gly-Ala-Gln-Ser-Gly-Leu-Gly-Cys-Asn-Ser-Phe-Arg-Tyr-OH", "values": [{"measurement": "ring closure, isolated yield", "setting": "[2]; [4]", "result": 22, "unit": "%"}]}, {"compound": "H-Aib-Cys-Phe-Gly-Gly-Arg-Met-Asp-Arg-Ile-Gly-Ala-Gln-Ser-Gly-Leu-Gly-Cys-Asn-Ser-Phe-Arg-Tyr-OH", "values": [{"measurement": "ring closure, isolated yield", "setting": "[2]; [3]", "result": 12, "unit": "%"}]}, {"compound": "H-Aib-Cys-Phe-Gly-Gly-Arg-Nle-Asp-Arg-Ile-Gly-Ala-Gln-Ser-Gly-Leu-Gly-Cys-Asn-Ser-Phe-Arg-Tyr-OH", "values": [{"measurement": "ring closure, isolated yield", "setting": "[2]; [4]", "result": 14.4, "unit": "%"}]}, {"compound": "H-Ala-Cys-Phe-Gly-Gly-Arg-Met-Asp-Arg-Ile-Gly-Ala-Gln-Ser-Gly-Leu-Gly-Cys-Asn-Ser-Phe-Arg-Tyr-OH", "values": [{"measurement": "ring closure, isolated yield", "setting": "[2]; [4]", "result": 14, "unit": "%"}]}, {"compound": "H-Cys-Phe-Ava-Arg-Met-Asp-Arg-Ile-Gly-Ala-Gln-Ser-Gly-Leu-Gly-Cys-Asn-Ser-Phe-Arg-Tyr-OH", "values": [{"measurement": "ring closure, isolated yield", "setting": "[2]; 53-membered ring, air/NH4OAc/NH3 pH 6.9, water, 0.055 mM, 25.0 °C", "result": 30, "unit": "%"}]}, {"compound": "H-Cys-Phe-Gaba-Arg-Met-Asp-Arg-Ile-Gly-Ala-Gln-Ser-Gly-Leu-Gly-Cys-Asn-Ser-Phe-Arg-Tyr-OH", "values": [{"measurement": "ring closure, isolated yield", "setting": "[2]; 52-membered ring", "result": 20, "unit": "%"}]}, {"compound": "H-Cys-Phe-Gly-Arg-Met-Asp-Arg-Ile-Gly-Ala-Gln-Ser-Gly-Leu-Gly-Cys-Asn-Ser-Phe-Arg-Tyr-OH", "values": [{"measurement": "ring closure, isolated yield", "setting": "[2]; 50-membered ring, air/NH4OAc/NH3 pH 6.9, water, 0.056 mM, 25.0 °C", "result": 18, "unit": "%"}]}, {"compound": "H-Cys-Phe-Gly-Gly-Arg-DL-Chg-Asp-Arg-Ile-Gly-Ala-Gln-Ser-Gly-Leu-Gly-Cys-Asn-Ser-Phe-Arg-Tyr-OH", "values": [{"measurement": "ring closure, isolated yield", "setting": "[2]; [4]", "result": 38, "unit": "%"}]}, {"compound": "H-Cys-Phe-Gly-Gly-Arg-Met-Asp-Arg-Ile-Gly-Ala-Gln-Ser-Gly-Leu-Gly-Cys-Asn-Ser-Phe-dArg-Tyr-OH", "values": [{"measurement": "ring closure, isolated yield", "setting": "[2]; [4]", "result": 25, "unit": "%"}]}, {"compound": "H-Cys-Phe-dAla-Gly-Arg-Met-Asp-Arg-Ile-Gly-Ala-Gln-Ser-Gly-Leu-Gly-Cys-Asn-Ser-Phe-Arg-Tyr-OH", "values": [{"measurement": "ring closure, isolated yield", "setting": "[2]; 53-membered ring, air/NH4OAc/NH3 pH 6.9, water, 0.053 mM, 25.0 °C", "result": 16, "unit": "%"}]}, {"compound": "H-Cys-Phe-βAla-Arg-Met-Asp-Arg-Ile-Gly-Ala-Gln-Ser-Gly-Leu-Gly-Cys-Asn-Ser-Phe-Arg-Tyr-OH", "values": [{"measurement": "ring closure, isolated yield", "setting": "[2]; 51-membered ring, air/NH4OAc/NH3 pH 6.9, water, 0.056 mM, 25.0 °C", "result": 17, "unit": "%"}]}, {"compound": "H-Ile-Cys-Phe-Gly-Gly-Arg-Met-Asp-Arg-Ile-Gly-Ala-Gln-Ser-Gly-Leu-Gly-Cys-Asn-Ser-Phe-Arg-Tyr-OH", "values": [{"measurement": "ring closure, isolated yield", "setting": "[2]; [4]", "result": 11, "unit": "%"}]}, {"compound": "H-Val-Cys-Phe-Gly-Gly-Arg-Met-Asp-Arg-Ile-Gly-Ala-Gln-Ser-Gly-Leu-Gly-Cys-Asn-Ser-Phe-Arg-Tyr-OH", "values": [{"measurement": "ring closure, isolated yield", "setting": "[2]; [4]", "result": 16, "unit": "%"}]}, {"compound": "H-dAla-Cys-Phe-Gly-Gly-Arg-Met-Asp-Arg-Ile-Gly-Ala-Gln-Ser-Gly-Leu-Gly-Cys-Asn-Ser-Phe-Arg-Tyr-OH", "values": [{"measurement": "ring closure, isolated yield", "setting": "[2]; [4]", "result": 17, "unit": "%"}]}]}
